These results are taken from patent US10167517B2, “MIPOL1-ETV1 gene rearrangements” (THE REGENTS OF THE UNIVERSITY OF MICHIGAN, priority 2007, dated 2019).

This assay relates to LNCaP cells. Description: Androgen regulation of gene expression by qPCR in LNCaP cells stimulated with R1881. The assay is classed as cell-based. Particulars: target gene to GAPDH ratio. An excerpt:
FIG. 6, a illustrates the tissue specificity of the 4 contiguous genes in the 14q13.3-14q21.1 region which was interrogated in the expo dataset (using Oncomine) and expression (in normalized expression units) is shown for 28 distinct tumor types and prostate cancer. FIG. 6, b and -c illustrate androgen regulation of the contiguous 14q13.3-14q21.1 genes (FIG. 6, b) and ETV1 (FIG. 6, c), as determined by qPCR in LNCaP cells with (+) or without (−) stimulation by the synthetic androgen R1881. Ratios of target gene to GAPDH (mean (n=4)+S.E.) are shown. FIG. 6, d illustrates that LNCaP and its androgen insensitive derivative, C4-2B, were profiled using a microarray (Agilent Whole Genome Microarrays), in which the top ten most differentially expressed features (LNCaP/C4-2B) are shown. FIG. 6, e-g illustrate qPCR results that show decreased expression of androgen regulated genes in C4-2B compared to LNCaP, for markers ETV1 (FIG. 6, e) and PSA (FIG. 6, f), and the 4 contiguous transcripts at 14q13.3-14q21.1 (FIG. 6, g).
Additional prostate cancer cell lines were tested to screen for ERG and ETV1 expression by quantitative PCR (qPCR), to identify additional genetic rearrangements. The following cells were tested: an immortalized benign prostate epithelial cell line (RWPE) and 8 prostate cancer cell lines (MDA-PCa 2B, LNCaP, VCaP, LAPC4, 22Rv1, NCI-H660, PC3 and DU145). Quantitative PCR (QPCR) was performed by using the oligonucleotide primers shown in Table 1 (“Fusion QPCR” and “Androgen QPCR” sections) with standard laboratory procedures and reagents (Power SYBR Green Mastermix and 7300 Real Time PCR system, Applied Biosystems, Foster City, Calif.). All oligonucleotide primers were synthesized by standard methods (performed by Integrated DNA Technologies, Coralville, Iowa). HMBS and GAPDHS, and PSA6 primers were as described previously (Vandesompele et al., Genome Biol. 3:RESEARCH0034 (2002); Specht et al., Am J. Pathol. 158: 419 (2001)). Androgen stimulation reactions were performed in quadruplicate, and all other reactions were performed in duplicate.
On the technique in general: Quantitative PCR measures a nucleic acid by following its amplification.

With `C[C@]1(O)CC[C@H]2[C@@H]3CCC4=CC(=O)CCC4=C3C=C[C@@]21C` [R1881], the “expression of ETV1 following R1881 stimulation” value (with vs without R1881, p=0.0004) amounted to 1.8 fold. Moreover, the “expression of SLC25A21 following R1881 stimulation” value (with vs without R1881, p=0.008) was 0.75 fold. Further, the “expression of FOXA1 following R1881 stimulation” value (with vs without R1881, p=0.05) is on record as 1.3 fold. For the same molecule, for the setting “with vs without R1881, p=0.08”, the “expression of MIPOL1 following R1881 stimulation” value was found to be 1.2 fold. Further, the “expression of TTC6 following R1881 stimulation” value (with vs without R1881, p=0.10) came to 0.70 fold.
